# Reference: patent publication US20240308988A1, “Method For Controlling Diamide Resistant Pests and Compounds Therefor” (priority 2021, published 2024)
# Assays:
# [1] = test system: Resistant Plutella xylostella R4 (carries the RyR mutation G4946E); test: Resistant Plutella xylostella R4 (Diamond back moth) larvicide L1, feeding/contact, artificial diet in 24-well plates; format: in vivo; conditions: Plutella xylostella, 192 h, read-out: control of the resistant strain of Plutella xylostella R4
# Protocol: Resistant Plutella xylostella R4 (Diamond back moth) larvicide L1, feeding/contact 24-well microtiter plates with artificial diet were treated with aqueous test solutions prepared from 10′000 ppm DMSO stock solutions by pipetting. After drying, around 30 Plutella eggs were pipetted through a plastic stencil onto a gel blotting paper and the plate was closed with it. The samples were assessed for mortality in comparison to untreated samples 8 days after infestation.
# Chlorantraniliprole was used as standard and a resistance factor of 242 was obtained for this strain
# Plutella xylostella resistant strain R4 originated in the lab in 2021 from crossing the R1 strain with a lab-reared susceptible P. xylostella strain (SUS). R4 can be reared and tested on artificial diet and also carries the RyR mutation G4946E conferring resistance to diamides. The strain is selected approximately every two weeks with chlorantraniliprole. The following compounds, according to the present invention, gave at least 80% control of the resistant strain of Plutella xylostella R4 at 50 ppm or below: P11, P18, P26, P31, P33, P34, P36, P38, P42, P43, P46, P49, P50, P52, P56, P58, P60, P61, P63, P64, P65, P66, P67, P73, P76, P84, P97, P99, P102, P105.
# [2] = test system: Resistant Plutella xylostella R1 (multi-resistant larvae having the G4946E resistance mutation); test: Resistant Plutella xylostella R1 (Diamond back moth) larvicide L3, feeding/contact, sprayed Chinese cabbage leaves; format: in vivo; conditions: Plutella xylostella, 96 h, read-out: control of the resistant strain of Plutella xylostella R1
# Protocol: Resistant Plutella xylostella R1 (Diamond back moth) larvicide L3, feeding/contact Chinese cabbage plants were sprayed with diluted test solutions in an application chamber. Cut off leaves were placed into petri dishes with wetted filter paper and infested 1 day after application with 10 L3 multi-resistant Plutella xylostella larvae having the G4946E resistance mutation.
# Samples were assessed 4 days after infestation for mortality and growth regulation.
# Chlorantraniliprole was used as standard and a resistance factor of 146 was obtained for this strain.
# Plutella xylostella resistant strain R1 originally collected from Taiwan in 2012 that carries the RyR mutation G4946E conferring resistance to diamides. The strain is reared on cabbage plants (Brassica aleracea) and selected approximately every two weeks with chlorantraniliprole.
# [3] = test system: Plutella xylostella (Diamond back moth) ryanodine receptor, containing the G4946E resistance mutation; test: In vitro calcium fluorescence assay (Fluo-8 NW, FDSS) in human embryonic kidney cells expressing the ryanodine receptor; format: cell-based; conditions: table; EC50 (compound)/EC50 (cyantraniliprole); G4946E RyR in HEK cells
# Protocol: Human embryonic kidney cells expressing the Plutella xylostella (Diamond back moth) ryanodine receptor, containing the G4946E resistance mutation, are loaded with Fluo-8 No Wash (NW) calcium-sensitive dye which responds by fluorescence to a change in intracellular calcium (e.g. stimulated by activation of ryanodine receptor). Test compounds are added in 10 rates to a 384-well plate containing dye-loaded cells and the fluorescent signal is measured using the Hamamatsu FDSS (Functional Drug Screening system). Dose-response curves are plotted to estimate the EC50. EC50 are normalized against an in-assay reference standard (cyantraniliprole) to address inter-assay variability. The ratio for a given compound is then obtained by the following formula:
# REC50=EC50 (compound)/EC50 (cyantraniliprole).
Compound,pest or weed control at 50 µg/mL [1] [%],pest or weed control at 50 µg/mL [2] [%],REC50 (Compound of the invention) [3]
"Cc1cc(I)cc(C(N)=O)c1NC(=O)c1cc(OCC(F)(F)F)nn1-c1ncccc1Cl [Compound P11, N-(2-carbamoyl-4-iodo-6-methyl-phenyl)-2-(3-chloro-2-pyridyl)-5-(2,2,2-trifluoroethoxy)pyrazole-3-carboxamide]",≥ 80,≥ 80,–
"Cc1cc(I)cc(C(N)=O)c1NC(=O)c1cc(C(F)(F)F)nn1-c1ncccc1Cl [Compound P27, N-(2-carbamoyl-4-iodo-6-methyl-phenyl)-2-(3-chloro-2-pyridyl)-5-(trifluoromethyl)pyrazole-3-carboxamide]",–,≥ 80,0.18
"Cc1cc(C#N)cc(C(N)=O)c1NC(=O)c1cc(Br)nn1-c1ncccc1Cl [Compound P30, 5-bromo-N-(2-carbamoyl-4-cyano-6-methyl-phenyl)-2-(3-chloro-2-pyridyl) pyrazole-3-carboxamide]",–,≥ 80,0.39
"NC(=O)c1cc(Br)cc(Cl)c1NC(=O)c1cc(I)nn1-c1ncccc1Cl [Compound P36, N-(4-bromo-2-carbamoyl-6-chloro-phenyl)-2-(3-chloro-2-pyridyl)-5-iodo-pyrazole-3-carboxamide]",≥ 80,≥ 80,–
"Cc1cc(Br)cc(C(N)=O)c1NC(=O)c1cc(Cn2ncc(C(F)(F)F)n2)nn1-c1ncccc1Cl [Compound P38, N-(4-bromo-2-carbamoyl-6-methyl-phenyl)-2-(3-chloro-2-pyridyl)-5-[[4-(trifluoromethyl)triazol-2-yl]methyl]pyrazole-3-carboxamide]",≥ 80,≥ 80,–
"NC(=O)c1cc(Br)cc(F)c1NC(=O)c1cc(C(F)(F)F)nn1-c1ncccc1Cl [Compound P42, N-(4-bromo-2-carbamoyl-6-fluoro-phenyl)-2-(3-chloro-2-pyridyl)-5-(trifluoromethyl)pyrazole-3-carboxamide]",≥ 80,–,–
"Cc1cc(Br)cc(C(N)=O)c1NC(=O)c1cc(Cn2nnc(-c3ccc(C(F)(F)F)cc3)n2)nn1-c1ncccc1Cl [Compound P43, N-(4-bromo-2-carbamoyl-6-methyl-phenyl)-2-(3-chloro-2-pyridyl)-5-[[5-[4-(trifluoromethyl)phenyl]tetrazol-2-yl]methyl]pyrazole-3-carboxamide]",≥ 80,≥ 80,–
"NC(=O)c1cc(Br)cc(Br)c1NC(=O)c1cc(C(F)(F)F)nn1-c1ncccc1Cl [Compound P46, 2-(3-chloro-2-pyridyl)-N-(2,4-dibromo-6-carbamoyl-phenyl)-5-(trifluoromethyl)-pyrazole-3-carboxamide]",≥ 80,–,0.39
"Cc1cc(Cl)cc(C(N)=O)c1NC(=O)c1cc(Cn2nnc(-c3ccc(Br)cc3)n2)nn1-c1ncccc1Cl [Compound P49, 5-[[5-(4-bromophenyl)tetrazol-2-yl]methyl]-N-(2-carbamoyl-4-chloro-6-methyl-phenyl)-2-(3-chloro-2-pyridyl)pyrazole-3-carboxamide]",≥ 80,≥ 80,–
"NC(=O)c1cc(Cl)cc(Cl)c1NC(=O)c1cc(I)nn1-c1ncccc1Cl [Compound P50, N-(2-carbamoyl-4,6-dichloro-phenyl)-2-(3-chloro-2-pyridyl)-5-iodo-pyrazole-3-carboxamide]",≥ 80,≥ 80,–
"NC(=O)c1cc(Cl)cc(Br)c1NC(=O)c1cc(Cn2ncc(C(F)(F)F)n2)nn1-c1ncccc1Cl [Compound P52, N-(2-bromo-6-carbamoyl-4-chloro-phenyl)-2-(3-chloro-2-pyridyl)-5-[[4-(trifluoromethyl)triazol-2-yl]methyl] pyrazole-3-carboxamide]",≥ 80,–,–
"Cc1cc(Cl)cc(C(N)=O)c1NC(=O)c1cc(OCC(F)F)nn1-c1ncccc1Cl [Compound P56, N-(2-carbamoyl-4-chloro-6-methyl-phenyl)-2-(3-chloro-2-pyridyl)-5-(2,2-difluoroethoxy)pyrazole-3-carboxamide]",≥ 80,–,–
"NC(=O)c1cc(Cl)cc(Cl)c1NC(=O)c1cc(Cn2nnc(-c3ccc(C(F)(F)F)cc3)n2)nn1-c1ncccc1Cl [Compound P58, N-(2-carbamoyl-4,6-dichloro-phenyl)-2-(3-chloro-2-pyridyl)-5-[[5-[4-(trifluoromethyl)phenyl]tetrazol-2-yl]methyl]pyrazole-3-carboxamide]",≥ 80,≥ 80,–
"NC(=O)c1cc(I)cc(Cl)c1NC(=O)c1cc(C(F)(F)F)nn1-c1ncccc1Cl [Compound P60, N-(2-carbamoyl-6-chloro-4-iodo-phenyl)-2-(3-chloro-2-pyridyl)-5-(trifluoromethyl)pyrazole-3-carboxamide]",≥ 80,–,–
"NC(=O)c1cc(I)cc(Cl)c1NC(=O)c1cc(Br)nn1-c1ncccc1Cl [Compound P61, 5-bromo-N-(2-carbamoyl-6-chloro-4-iodo-phenyl)-2-(3-chloro-2-pyridyl) pyrazole-3-carboxamide]",≥ 80,–,–
"NC(=O)c1cc(I)cc(F)c1NC(=O)c1cc(C(F)(F)F)nn1-c1ncccc1Cl [Compound P64, N-(2-carbamoyl-6-fluoro-4-iodo-phenyl)-2-(3-chloro-2-pyridyl)-5-(trifluoromethyl)pyrazole-3-carboxamide]",≥ 80,–,0.69
"NC(=O)c1cc(I)cc(F)c1NC(=O)c1cc(Br)nn1-c1ncccc1Cl [Compound P65, 5-bromo-N-(2-carbamoyl-6-fluoro-4-iodo-phenyl)-2-(3-chloro-2-pyridyl) pyrazole-3-carboxamide]",≥ 80,–,–
"Cc1cc(C#N)cc(C(N)=O)c1NC(=O)c1cc(I)nn1-c1ncccc1Cl [Compound P66, N-(2-carbamoyl-4-cyano-6-methyl-phenyl)-2-(3-chloro-2-pyridyl)-5-iodo-pyrazole-3-carboxamide]",≥ 80,–,–
"Cc1cc(Cl)cc(C(N)=O)c1NC(=O)c1cc(Br)nn1-c1ncccc1Br [Compound P73, 5-bromo-2-(3-bromo-2-pyridyl)-N-(2-carbamoyl-4-chloro-6-methyl-phenyl)pyrazole-3-carboxamide]",≥ 80,–,–
"Cc1cc(Cl)cc(C(N)=O)c1NC(=O)c1cc(Cn2nnc(-c3ccc(F)cc3)n2)nn1-c1ncccc1Cl [Compound P84, N-(2-carbamoyl-4-chloro-6-methyl-phenyl)-2-(3-chloro-2-pyridyl)-5-[[5-(4-fluorophenyl)tetrazol-2-yl]methyl] pyrazole-3-carboxamide]",≥ 80,–,–
"Cc1cc(Cl)cc(C(N)=O)c1NC(=O)c1cc(Cn2nnc(-c3cccc(C(F)(F)F)c3)n2)nn1-c1ncccc1Cl [Compound P97, N-(2-carbamoyl-4-chloro-6-methyl-phenyl)-2-(3-chloro-2-pyridyl)-5-[[5-[3-(trifluoromethyl)phenyl]tetrazol-2-yl]methyl]pyrazole-3-carboxamide]",≥ 80,–,–
"Cc1cc(-c2nnn(Cc3cc(C(=O)Nc4c(C)cc(Cl)cc4C(N)=O)n(-c4ncccc4Cl)n3)n2)ccc1Cl [Compound P99, N-(2-carbamoyl-4-chloro-6-methyl-phenyl)-5-[[5-(4-chloro-3-methyl-phenyl)tetrazol-2-yl]methyl]-2-(3-chloro-2-pyridyl)pyrazole-3-carboxamide]",≥ 80,–,–
"Cc1cc(Cl)cc(C(N)=O)c1NC(=O)c1cc(Cn2nnc(-c3ccc(F)c(Br)c3)n2)nn1-c1ncccc1Cl [Compound P102, 5-[[5-(3-bromo-4-fluoro-phenyl)tetrazol-2-yl]methyl]-N-(2-carbamoyl-4-chloro-6-methyl-phenyl)-2-(3-chloro-2-pyridyl)pyrazole-3-carboxamide]",≥ 80,–,–
"Cc1cc(Cl)cc(C(N)=O)c1NC(=O)c1cc(Cn2nnc(-c3ccccc3)n2)nn1-c1ncccc1Cl [Compound P105, N-(2-carbamoyl-4-chloro-6-methyl-phenyl)-2-(3-chloro-2-pyridyl)-5-[(5-phenyltetrazol-2-yl)methyl] pyrazole-3-carboxamide]",≥ 80,–,–
